Reference: US20090156638A1, “Uses of nordihydroguaiaretic acid (NDGA) and derivatives thereof in preventing transmission of sexually transmitted diseases” (priority 2007, published 2009)
Like-named read-outs stand apart in the source and are kept apart here.

Experiments:
HSV-1 [1] = assay: Mutation-insensitivity: IC50 against HSV-1 over ten virus passages; type: cell-based
Excerpt: In contrast, host factors, unlike viral factors, are under no selective pressure to mutate and are in general structurally invariable. […] Table 1 compares the IC50 of M4N and acyclovir for ten passages.

HSV-1 [2] = conditions: read-out: Inhibitory Concentration (IC50 or EC50)
HIV-1RTMF = conditions: read-out: Inhibitory Concentration (IC50 or EC50), H9 cells
HSV-1 [3] = conditions: topical application for six days in guinea pigs, up to 50 mM; reference (34); cited from earlier work
HSV-1 [4] = conditions: for efficacy against HSV-1 cutaneous infection: day 6
Method: The dorsal cutaneous guinea pig model system is a well-established model for HSV-1 infection.
In FIGS. 6A-6D, for topical treatment with M4N sections of shaved and depilated dorsal guinea pig skin were infected equally were infected with HSV-1.
McKrae strain). […] Treatments were administered twice daily and photogragphs were taken at day 6 post-infection. […] Regions 1 and 4 were infected with high levels of HSV-1 (1×10^8 pfu/mL), regions 2 and 5 were infected with moderate levels of HSV-1 (1×10^6 pfu/mL) and regions 3 and 6 were infected with low levels of HSV-1 (1×10^4 pfu/mL).

Sp1 enhancer sequence = conditions: ethidium displacement; G4N concentration causing 50% reduction of DNA-ethidium fluorescence
Excerpt: (§1) The […] (IE) ICP4 gene of HSV is essential for HSV replication.

SIVmac239 = conditions: read-out: Inhibitory Concentration (IC50 or EC50), 174 × CEM cells
[5] = tested on: acyclovir-resistant strains of HSV-1 (HSV-1^R); conditions: read-out: Inhibitory Concentration (IC50 or EC50)
HIV-1 = conditions: read-out: Inhibitory Concentration (IC50 or EC50), Cos cells
HSV-1^R = conditions: 40 μM; explanted mouse trigeminal ganglia
HSV-2 = assay: Mouse vaginal model of HSV-2 infection; type: in vivo, CF-1 mice; conditions: for animals infected: 10 mice per group
Method: The efficacies of […] (FIG. 8A) and […] (FIG. 8A) against HSV-2 in a mouse vaginal model system have also been examined. […] At the end of three days, the vaginal lavages were collected from the washings of the vagina regions. The status of the vaginal HSV-2 infection and replication were examined by their cytopathic effects on cultured human foreskin fibroblast cells. Monitoring and scoring were carried out by three persons independently.

[6] = tested on: Sp1 transcription factor binding to the major groove of Sp1 site; conditions: by competition for binding or altering DNA conformation
Excerpt: as §1

## Nc1nc2c(ncn2COCCO)c(=O)[nH]1 [Acyclovir, acyclovir, reference compound]
HSV-1 [1]; Human alphaherpesvirus 1, HSV-1 passage 1
  IC50: 7.54 µM
HSV-1 [1]; Human alphaherpesvirus 1, HSV-1 passage 2
  IC50: 37.8 µM
HSV-1 [1]; Human alphaherpesvirus 1, HSV-1 passage 3
  IC50: 88.8 µM
HSV-1 [1]; Human alphaherpesvirus 1, HSV-1 passage 4
  IC50: 138 µM
HSV-1 [1]; Human alphaherpesvirus 1, HSV-1 passage 5
  IC50: 111 µM
HSV-1 [1]; Human alphaherpesvirus 1, HSV-1 passage 6
  IC50: 131 µM
HSV-1 [1]; Human alphaherpesvirus 1, HSV-1 passage 7
  IC50: 190 µM
HSV-1 [1]; Human alphaherpesvirus 1, HSV-1 passage 8
  IC50: 444 µM
HSV-1 [1]; Human alphaherpesvirus 1, HSV-1 passage 9
  IC50: 379 µM
HSV-1 [1]; Human alphaherpesvirus 1, HSV-1 passage 10
  IC50: 444 µM

## C[C@H](Cc1ccc(OC(=O)CN(C)C)c(OC(=O)CN(C)C)c1)[C@@H](C)Cc1ccc(OC(=O)CN(C)C)c(OC(=O)CN(C)C)c1 [G4N, tetra-O—(N,N-dimethyl)glycyl-nordihydroguaiaretic acid]
HSV-1 [2]; HSV-1 McKrae (Vero from row above)
  IC50: 4.5 µM
HSV-1 [2]; Vero cells, HSV-1 KOS
  IC50: 3.6 µM
HIV-1RTMF
  IC50: 12 µM
HSV-1 [3]
  toxicity: no evidence of toxicity
HSV-1 [4]; 5 mM topically twice daily, 1×10^8 pfu/mL McKrae
  efficacy against HSV-1 cutaneous infection: semi-effective
HSV-1 [4]; 10 mM topically twice daily, 1×10^8 pfu/mL McKrae
  efficacy against HSV-1 cutaneous infection: more effective
HSV-1 [4]; 150 mM topically twice a day, 1×10^4 to 1×10^8 pfu/mL
  efficacy against HSV-1 cutaneous infection: extremely effective
HSV-1 [4]; topical application, guinea pig
  inhibition of HSV-1 induced cutaneous lesion formation and viral shedding: effectively inhibited HSV-1 induced cutaneous lesion formation and viral shedding
Sp1 enhancer sequence
  apparent equilibrium binding constant (Kapp): 3e+06 M⁻¹
SIVmac239
  IC50: 5 µM
[5]; HSV-1^R F59878
  IC50: 2.1 µM
[5]; HSV-1^R T28387
  IC50: 4.3 µM
HIV-1
  IC50: 36 µM
HSV-1^R
  decrease in HSV reactivation: 40 μM had 67%
HSV-2; 0.1 mM
  average infection score: 0.5
  infection: ~12.5%
HSV-2; 0.1 mM, vaginal lavage at three days
  animals infected: 1 out of 10
HSV-2; 10 mM
  animals infected: no infections detected
HSV-2; 100 mM
  animals infected: no infections detected

## COc1cc(CC(C)C(C)Cc2ccc(O)c(O)c2)ccc1O (stereo not shown) [Mal.4, 3′-O-methyl nordihydroguaiaretic acid]
HIV-1
  IC50: 25 µM

## CC(Cc1ccc(OCCN2CCCCC2)c(OCCN2CCCCC2)c1)C(C)Cc1ccc(OCCN2CCCCC2)c(OCCN2CCCCC2)c1 (stereo not shown) [P4N, tetra-O—(N-ethylpiperidinyl)-nordihydroguaiaretic acid]
[6]
  disruption of Sp1 transcription factor binding: disrupt Sp1 transcription factor binding
HSV-2; 10 mM
  average scale of infection: 0.19
  animals infected: 2 of 10
HSV-2; in PBS
  efficacy against vaginal HSV-2 infection: quite effective
